According to ChEMBL document CHEMBL3991601, “The target landscape of clinical kinase drugs” (Science, 2017):
Active and inactive are the calls of the source. For most assays here, no stated cut-off is given here; in the data, actives have a measured Kd and inactives only a lower limit.

Key:
[1] = target: T1, Beta-adrenergic receptor kinase 1 (Homo sapiens, UniProt P25098)
T1 sequence (P25098 whole entry): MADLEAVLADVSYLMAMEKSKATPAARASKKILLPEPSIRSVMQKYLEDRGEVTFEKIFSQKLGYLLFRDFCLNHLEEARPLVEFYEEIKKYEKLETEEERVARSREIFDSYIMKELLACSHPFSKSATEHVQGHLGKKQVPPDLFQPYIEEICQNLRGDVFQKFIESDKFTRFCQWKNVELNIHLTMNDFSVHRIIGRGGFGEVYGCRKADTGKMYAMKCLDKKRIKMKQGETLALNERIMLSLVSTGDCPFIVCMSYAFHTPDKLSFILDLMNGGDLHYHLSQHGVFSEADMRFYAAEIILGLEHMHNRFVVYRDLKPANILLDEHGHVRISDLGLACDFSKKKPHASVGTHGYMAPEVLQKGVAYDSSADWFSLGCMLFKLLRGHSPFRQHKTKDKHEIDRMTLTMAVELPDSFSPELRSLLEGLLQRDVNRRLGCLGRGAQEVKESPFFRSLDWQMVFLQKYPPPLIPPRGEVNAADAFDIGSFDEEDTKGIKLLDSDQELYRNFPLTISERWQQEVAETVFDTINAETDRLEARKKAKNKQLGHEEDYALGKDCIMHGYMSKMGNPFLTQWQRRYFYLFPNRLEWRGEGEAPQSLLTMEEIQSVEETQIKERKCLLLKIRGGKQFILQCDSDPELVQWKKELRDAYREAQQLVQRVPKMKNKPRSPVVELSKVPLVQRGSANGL

[2] = target: T2, Calcium/calmodulin-dependent protein kinase type IV (Homo sapiens, UniProt Q16566)
T2 sequence (Q16566 whole entry): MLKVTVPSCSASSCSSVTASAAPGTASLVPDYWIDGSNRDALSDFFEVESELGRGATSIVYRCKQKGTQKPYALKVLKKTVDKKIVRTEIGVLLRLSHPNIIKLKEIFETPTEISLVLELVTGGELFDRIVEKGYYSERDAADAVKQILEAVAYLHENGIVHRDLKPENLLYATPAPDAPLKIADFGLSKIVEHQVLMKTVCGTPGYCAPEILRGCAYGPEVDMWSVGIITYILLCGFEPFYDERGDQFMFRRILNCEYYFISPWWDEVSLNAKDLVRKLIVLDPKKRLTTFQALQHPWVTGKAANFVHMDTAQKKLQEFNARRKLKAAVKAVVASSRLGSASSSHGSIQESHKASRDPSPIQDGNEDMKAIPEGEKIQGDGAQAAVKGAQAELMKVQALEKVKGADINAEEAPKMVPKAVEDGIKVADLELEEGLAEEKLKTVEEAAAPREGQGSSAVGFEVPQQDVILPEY

[3] = target: Cyclin-dependent kinase 13 (Homo sapiens, UniProt Q14004)
[4] = target: T3, Phenylalanine--tRNA ligase beta subunit (Homo sapiens, UniProt Q9NSD9)
T3 sequence (Q9NSD9 whole entry): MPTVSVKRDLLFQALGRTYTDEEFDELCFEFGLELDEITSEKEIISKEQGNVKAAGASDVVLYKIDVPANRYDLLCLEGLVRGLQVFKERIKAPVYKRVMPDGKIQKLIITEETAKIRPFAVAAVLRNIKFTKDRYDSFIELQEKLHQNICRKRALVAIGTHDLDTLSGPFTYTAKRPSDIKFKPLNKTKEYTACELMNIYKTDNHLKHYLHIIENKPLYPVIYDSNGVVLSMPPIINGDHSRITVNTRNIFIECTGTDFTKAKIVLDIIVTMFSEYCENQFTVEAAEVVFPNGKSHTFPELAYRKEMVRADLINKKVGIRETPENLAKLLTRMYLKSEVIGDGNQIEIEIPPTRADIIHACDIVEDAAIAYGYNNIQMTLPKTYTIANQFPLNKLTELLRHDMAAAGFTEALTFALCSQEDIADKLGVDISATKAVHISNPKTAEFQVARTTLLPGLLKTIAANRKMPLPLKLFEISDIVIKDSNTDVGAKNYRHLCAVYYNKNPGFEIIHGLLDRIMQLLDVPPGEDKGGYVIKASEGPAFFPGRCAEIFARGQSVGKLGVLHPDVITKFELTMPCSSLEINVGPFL

[5] = target: Tyrosine-protein kinase FRK (Homo sapiens, UniProt P42685)
GTP-binding protein 4 = GTP-binding protein 4 (Homo sapiens, UniProt Q9BZE4)
[6] = target: T4, Dual specificity mitogen-activated protein kinase kinase 5 (Homo sapiens, UniProt Q13163)
T4 sequence (Q13163 whole entry): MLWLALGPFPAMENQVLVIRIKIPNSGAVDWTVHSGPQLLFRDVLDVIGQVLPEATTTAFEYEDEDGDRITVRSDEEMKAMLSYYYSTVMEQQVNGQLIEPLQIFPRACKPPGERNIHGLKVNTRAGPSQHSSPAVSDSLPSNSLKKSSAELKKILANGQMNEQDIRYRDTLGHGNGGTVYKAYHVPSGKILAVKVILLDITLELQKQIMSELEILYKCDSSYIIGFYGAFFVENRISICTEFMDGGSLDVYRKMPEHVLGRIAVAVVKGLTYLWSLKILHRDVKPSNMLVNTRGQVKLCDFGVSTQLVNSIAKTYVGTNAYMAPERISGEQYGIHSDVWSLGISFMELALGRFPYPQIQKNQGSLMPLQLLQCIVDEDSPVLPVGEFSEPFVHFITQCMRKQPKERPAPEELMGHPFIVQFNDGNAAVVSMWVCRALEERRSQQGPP

[7] = target: Mitogen-activated protein kinase 1 (Homo sapiens, UniProt P28482)
[8] = target: T5, EKC/KEOPS complex subunit TP53RK (Homo sapiens, UniProt Q96S44)
T5 sequence (Q96S44 whole entry): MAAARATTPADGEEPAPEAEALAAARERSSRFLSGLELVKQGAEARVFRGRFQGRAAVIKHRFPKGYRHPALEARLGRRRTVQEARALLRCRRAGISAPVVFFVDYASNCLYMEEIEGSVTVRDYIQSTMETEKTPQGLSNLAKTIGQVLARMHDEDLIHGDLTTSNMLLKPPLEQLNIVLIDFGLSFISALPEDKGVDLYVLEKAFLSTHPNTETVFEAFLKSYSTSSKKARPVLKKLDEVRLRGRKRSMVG

Cyclin-dependent kinase 13, sequence (Q14004 whole entry): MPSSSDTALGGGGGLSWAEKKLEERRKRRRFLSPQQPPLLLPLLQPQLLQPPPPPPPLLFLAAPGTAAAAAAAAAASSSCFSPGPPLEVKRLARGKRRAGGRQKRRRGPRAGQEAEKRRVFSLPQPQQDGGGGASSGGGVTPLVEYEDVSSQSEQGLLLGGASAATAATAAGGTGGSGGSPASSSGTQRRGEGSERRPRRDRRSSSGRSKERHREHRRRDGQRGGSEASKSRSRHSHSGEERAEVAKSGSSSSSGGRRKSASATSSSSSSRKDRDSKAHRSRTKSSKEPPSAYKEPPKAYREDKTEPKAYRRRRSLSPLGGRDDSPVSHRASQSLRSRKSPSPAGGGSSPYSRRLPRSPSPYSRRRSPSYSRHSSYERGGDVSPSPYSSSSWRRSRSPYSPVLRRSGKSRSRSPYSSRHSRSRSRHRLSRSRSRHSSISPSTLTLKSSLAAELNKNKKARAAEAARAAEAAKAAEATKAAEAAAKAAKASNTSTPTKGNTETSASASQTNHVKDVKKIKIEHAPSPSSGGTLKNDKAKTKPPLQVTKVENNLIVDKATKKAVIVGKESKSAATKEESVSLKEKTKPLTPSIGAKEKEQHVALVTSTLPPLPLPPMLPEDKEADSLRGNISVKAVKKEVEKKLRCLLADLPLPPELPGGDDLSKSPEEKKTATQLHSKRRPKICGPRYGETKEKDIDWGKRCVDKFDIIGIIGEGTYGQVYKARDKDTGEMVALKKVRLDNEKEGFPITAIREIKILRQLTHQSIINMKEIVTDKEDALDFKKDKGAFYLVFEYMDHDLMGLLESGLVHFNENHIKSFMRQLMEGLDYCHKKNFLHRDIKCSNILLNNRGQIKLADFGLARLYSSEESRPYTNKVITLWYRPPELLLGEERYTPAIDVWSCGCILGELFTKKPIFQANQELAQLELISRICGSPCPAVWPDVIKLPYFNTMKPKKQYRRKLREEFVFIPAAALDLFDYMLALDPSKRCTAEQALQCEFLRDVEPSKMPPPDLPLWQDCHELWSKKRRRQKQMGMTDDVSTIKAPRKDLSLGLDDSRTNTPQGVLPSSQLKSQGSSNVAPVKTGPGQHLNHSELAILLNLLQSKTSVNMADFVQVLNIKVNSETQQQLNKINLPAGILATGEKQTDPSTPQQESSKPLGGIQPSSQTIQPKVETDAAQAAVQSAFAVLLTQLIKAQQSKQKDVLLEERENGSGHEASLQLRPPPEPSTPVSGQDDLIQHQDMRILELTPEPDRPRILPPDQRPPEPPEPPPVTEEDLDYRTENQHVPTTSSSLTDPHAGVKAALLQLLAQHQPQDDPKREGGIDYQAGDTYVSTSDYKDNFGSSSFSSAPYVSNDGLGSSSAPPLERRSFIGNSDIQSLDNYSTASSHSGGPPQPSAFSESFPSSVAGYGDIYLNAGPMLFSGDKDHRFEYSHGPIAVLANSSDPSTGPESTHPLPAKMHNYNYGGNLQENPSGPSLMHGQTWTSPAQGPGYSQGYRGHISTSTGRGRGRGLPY
Tyrosine-protein kinase FRK, sequence (P42685 whole entry): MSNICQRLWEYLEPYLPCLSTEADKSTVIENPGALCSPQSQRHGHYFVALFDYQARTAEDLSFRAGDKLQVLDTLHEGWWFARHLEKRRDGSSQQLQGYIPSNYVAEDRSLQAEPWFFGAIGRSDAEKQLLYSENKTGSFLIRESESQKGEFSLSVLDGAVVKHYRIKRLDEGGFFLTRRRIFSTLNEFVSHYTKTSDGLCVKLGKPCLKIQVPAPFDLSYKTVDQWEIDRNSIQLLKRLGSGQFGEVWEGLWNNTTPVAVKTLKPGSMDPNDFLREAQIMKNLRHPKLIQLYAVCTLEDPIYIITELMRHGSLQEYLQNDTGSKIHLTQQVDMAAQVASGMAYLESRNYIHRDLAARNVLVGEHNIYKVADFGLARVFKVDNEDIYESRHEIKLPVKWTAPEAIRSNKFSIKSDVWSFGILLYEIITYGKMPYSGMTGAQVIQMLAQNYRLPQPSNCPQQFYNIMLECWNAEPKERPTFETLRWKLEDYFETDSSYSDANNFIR
Mitogen-activated protein kinase 1, sequence (P28482 whole entry): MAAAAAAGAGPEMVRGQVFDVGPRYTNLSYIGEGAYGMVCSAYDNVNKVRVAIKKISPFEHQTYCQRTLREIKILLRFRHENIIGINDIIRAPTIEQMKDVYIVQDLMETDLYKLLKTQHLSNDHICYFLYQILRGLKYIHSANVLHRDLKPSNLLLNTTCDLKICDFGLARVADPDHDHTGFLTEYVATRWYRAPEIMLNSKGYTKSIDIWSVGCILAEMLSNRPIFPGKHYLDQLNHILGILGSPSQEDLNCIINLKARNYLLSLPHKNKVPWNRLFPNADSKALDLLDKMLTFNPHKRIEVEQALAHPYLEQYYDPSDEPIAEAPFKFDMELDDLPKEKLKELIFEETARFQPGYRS

O=C1NC(=O)/C(=C/c2ccc3nccc(-c4ccncc4)c3c2)S1 [GSK-1059615]
Kd [1]: > 30 µM (inactive) | Kd [2]: > 30 µM (inactive) | Kd [3]: > 30 µM (inactive) | Kd [4]: > 30 µM (inactive) | Kd [5]: > 30 µM (inactive) | Kd (GTP-binding protein 4): > 30 µM (inactive) | Kd [6]: > 30 µM (inactive) | Kd [7]: > 30 µM (inactive) | Kd [8]: 0.058 µM (active)

Cn1cc(-c2ccc3nnc(C(F)(F)c4ccc5ncccc5c4)n3n2)cn1 [JNJ-38877605]
Kd [1]: > 30 µM (inactive) | Kd [2]: > 30 µM (inactive) | Kd [3]: > 30 µM (inactive) | Kd [4]: > 30 µM (inactive) | Kd [5]: > 30 µM (inactive) | Kd (GTP-binding protein 4): > 30 µM (inactive) | Kd [6]: > 30 µM (inactive) | Kd [7]: > 30 µM (inactive) | Kd [8]: > 30 µM (inactive)

CO[C@H]1C[C@@H]2CC[C@@H](C)[C@@](O)(O2)C(=O)C(=O)N2CCCC[C@H]2C(=O)O[C@H]([C@H](C)C[C@@H]2CC[C@@H](OCCO)[C@H](OC)C2)CC(=O)[C@H](C)/C=C(\C)[C@@H](O)[C@@H](OC)C(=O)[C@H](C)C[C@H](C)/C=C/C=C/C=C/1C [EVEROLIMUS]
Kd [1]: > 30 µM (inactive) | Kd [2]: > 30 µM (inactive) | Kd [3]: > 30 µM (inactive) | Kd [4]: > 30 µM (inactive) | Kd [5]: > 30 µM (inactive) | Kd (GTP-binding protein 4): > 30 µM (inactive) | Kd [6]: > 30 µM (inactive) | Kd [7]: > 30 µM (inactive) | Kd [8]: > 30 µM (inactive)

COc1cc2nccc(Oc3ccc(NC(=O)NC4CC4)c(Cl)c3)c2cc1C(N)=O [LENVATINIB]
Kd [1]: > 30 µM (inactive) | Kd [2]: > 30 µM (inactive) | Kd [3]: > 30 µM (inactive) | Kd [4]: > 30 µM (inactive) | Kd [5]: > 30 µM (inactive) | Kd (GTP-binding protein 4): > 30 µM (inactive) | Kd [6]: 2.91 µM (active) | Kd [7]: > 30 µM (inactive) | Kd [8]: > 30 µM (inactive)

Cc1ccc(-n2nc(C(C)(C)C)cc2NC(=O)NCc2cc(F)ccc2Oc2ccc3c(cnn3CCO)c2)cc1 [PEXMETINIB]
Kd [1]: > 30 µM (inactive) | Kd [2]: > 30 µM (inactive) | Kd [3]: > 30 µM (inactive) | Kd [4]: > 30 µM (inactive) | Kd [5]: 1.55 µM (active) | Kd (GTP-binding protein 4): > 30 µM (inactive) | Kd [6]: > 30 µM (inactive) | Kd [7]: > 30 µM (inactive) | Kd [8]: > 30 µM (inactive)

OCCn1cc(-c2cnc3nnn(Cc4ccc5ncccc5c4)c3n2)cn1 [PF-04217903]
Kd [1]: > 30 µM (inactive) | Kd [2]: > 30 µM (inactive) | Kd [3]: > 30 µM (inactive) | Kd [4]: > 30 µM (inactive) | Kd [5]: > 30 µM (inactive) | Kd (GTP-binding protein 4): > 30 µM (inactive) | Kd [6]: > 30 µM (inactive) | Kd [7]: > 30 µM (inactive) | Kd [8]: > 30 µM (inactive)

CC(=O)Nc1cccc(-n2c(=O)n(C3CC3)c(=O)c3c(Nc4ccc(I)cc4F)n(C)c(=O)c(C)c32)c1 [TRAMETINIB]
Kd [1]: > 30 µM (inactive) | Kd [2]: > 30 µM (inactive) | Kd [3]: > 30 µM (inactive) | Kd [4]: > 30 µM (inactive) | Kd [5]: > 30 µM (inactive) | Kd (GTP-binding protein 4): > 30 µM (inactive) | Kd [6]: > 30 µM (inactive) | Kd [7]: > 30 µM (inactive) | Kd [8]: > 30 µM (inactive)

COC(=O)N[C@@H](C)CNc1nccc(-c2cn(C(C)C)nc2-c2cc(Cl)cc(NS(C)(=O)=O)c2F)n1 [ENCORAFENIB]
Kd [1]: > 30 µM (inactive) | Kd [2]: > 30 µM (inactive) | Kd [3]: > 30 µM (inactive) | Kd [4]: > 30 µM (inactive) | Kd [5]: > 30 µM (inactive) | Kd (GTP-binding protein 4): > 30 µM (inactive) | Kd [6]: > 30 µM (inactive) | Kd [7]: > 30 µM (inactive) | Kd [8]: > 30 µM (inactive)

O=C(Nc1ccc(-c2ccnc(Nc3ccc(N4CCOCC4)cc3)n2)cc1)C1CCCN1 (stereo not given) [XL-019]
Kd [1]: > 30 µM (inactive) | Kd [2]: > 30 µM (inactive) | Kd [3]: > 30 µM (inactive) | Kd [4]: > 30 µM (inactive) | Kd [5]: > 30 µM (inactive) | Kd (GTP-binding protein 4): > 30 µM (inactive) | Kd [6]: > 30 µM (inactive) | Kd [7]: > 30 µM (inactive) | Kd [8]: > 30 µM (inactive)

Cc1ccc(NC(=O)c2ccc(CN3CC[C@H](N(C)C)C3)c(C(F)(F)F)c2)cc1Nc1nccc(-c2cncnc2)n1 [BAFETINIB]
Kd [1]: > 30 µM (inactive) | Kd [2]: > 30 µM (inactive) | Kd [3]: > 30 µM (inactive) | Kd [4]: > 30 µM (inactive) | Kd [5]: 0.428 µM (active) | Kd (GTP-binding protein 4): > 30 µM (inactive) | Kd [6]: 11.4 µM (active) | Kd [7]: > 30 µM (inactive) | Kd [8]: > 30 µM (inactive)

COc1ccc(-c2ccc3c(N4CCOC[C@@H]4C)nc(N4CCOC[C@@H]4C)nc3n2)cc1CO [AZD-8055]
Kd [1]: > 30 µM (inactive) | Kd [2]: > 30 µM (inactive) | Kd [3]: > 30 µM (inactive) | Kd [4]: > 30 µM (inactive) | Kd [5]: > 30 µM (inactive) | Kd (GTP-binding protein 4): > 30 µM (inactive) | Kd [6]: > 30 µM (inactive) | Kd [7]: > 30 µM (inactive) | Kd [8]: > 30 µM (inactive)

Cn1cc(-c2ccc(F)c(C(F)(F)F)c2)nc1C1CCN(c2ncnc3[nH]ncc23)CC1 [LY-2584702]
Kd [1]: > 30 µM (inactive) | Kd [2]: > 30 µM (inactive) | Kd [3]: > 30 µM (inactive) | Kd [4]: > 30 µM (inactive) | Kd [5]: > 30 µM (inactive) | Kd (GTP-binding protein 4): > 30 µM (inactive) | Kd [6]: > 30 µM (inactive) | Kd [7]: > 30 µM (inactive) | Kd [8]: > 30 µM (inactive)

CNC(=O)CN1CCC(Oc2cc3c(Nc4cccc(Cl)c4F)ncnc3cc2OC)CC1 [SAPITINIB]
Kd [1]: > 30 µM (inactive) | Kd [2]: > 30 µM (inactive) | Kd [3]: > 30 µM (inactive) | Kd [4]: > 30 µM (inactive) | Kd [5]: > 30 µM (inactive) | Kd (GTP-binding protein 4): > 30 µM (inactive) | Kd [6]: > 30 µM (inactive) | Kd [7]: > 30 µM (inactive) | Kd [8]: > 30 µM (inactive)

COc1cc(CCc2cc(NC(=O)c3ccc(N4C[C@@H](C)N[C@@H](C)C4)cc3)n[nH]2)cc(OC)c1 [AZD-4547]
Kd [1]: > 30 µM (inactive) | Kd [2]: > 30 µM (inactive) | Kd [3]: > 30 µM (inactive) | Kd [4]: > 30 µM (inactive) | Kd [5]: > 30 µM (inactive) | Kd (GTP-binding protein 4): > 30 µM (inactive) | Kd [6]: > 30 µM (inactive) | Kd [7]: > 30 µM (inactive) | Kd [8]: > 30 µM (inactive)

CNC(=O)c1ccc(C)c(-n2c(C)cc(OCc3ccc(F)cc3F)c(Br)c2=O)c1 [PH-797804]
Kd [1]: > 30 µM (inactive) | Kd [2]: > 30 µM (inactive) | Kd [3]: > 30 µM (inactive) | Kd [4]: > 30 µM (inactive) | Kd [5]: > 30 µM (inactive) | Kd (GTP-binding protein 4): > 30 µM (inactive) | Kd [6]: > 30 µM (inactive) | Kd [7]: > 30 µM (inactive) | Kd [8]: > 30 µM (inactive)
